Data: patent US12421205B2, “GLP-1 receptor agonist” (HYUNDAI PHARM CO., LTD., priority 2019, dated 2025)
pEC50: −log10 of the molar value.

How the values were obtained:
[1] = molecular target: T1, human GLP-1 receptor (Homo sapiens, UniProt P43220); experiment: cAMP activity test (cAMP dynamic HTRF kit) in CHO-K1/GLP-1 receptor-expressing cells; type: cell-based; settings: cAMP activity, CHO-K1/GLP-1 receptor-expressing cells; read-out: EC50
T1 construct: host or cells: CHO-K1
In short: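 Cells in HBSS with 0.1% BSA, 0.5 mM IBMX and 5 mM HEPES, then lysed; cAMP-d2 and anti-cAMP cryptate added for 3 h. HTRF read-out, where FRET signal is inversely proportional to intracellular cAMP.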

[2] = molecular target: T2, hERG (Homo sapiens, UniProt Q12809); experiment: hERG inhibition test (Predictor hERG Fluorescence Polarization assay kit); type: binding; settings: probe kit Tracer (fluorescent hERG ligand), hERG % inhibition at 10 uM, relative to E-4031 and solvent control
T2 construct: purchased Invitrogen PV5365
In short: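 Competitive fluorescence-polarization binding of fluorescent tracer to hERG membrane preparation, 2.5 h at room temperature, mP read at 531/579 nm. % inhibition at 10 uM test compound, scaled between solvent control (0%) and E-4031 (100%).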

T2 sequence (Q12809 whole entry): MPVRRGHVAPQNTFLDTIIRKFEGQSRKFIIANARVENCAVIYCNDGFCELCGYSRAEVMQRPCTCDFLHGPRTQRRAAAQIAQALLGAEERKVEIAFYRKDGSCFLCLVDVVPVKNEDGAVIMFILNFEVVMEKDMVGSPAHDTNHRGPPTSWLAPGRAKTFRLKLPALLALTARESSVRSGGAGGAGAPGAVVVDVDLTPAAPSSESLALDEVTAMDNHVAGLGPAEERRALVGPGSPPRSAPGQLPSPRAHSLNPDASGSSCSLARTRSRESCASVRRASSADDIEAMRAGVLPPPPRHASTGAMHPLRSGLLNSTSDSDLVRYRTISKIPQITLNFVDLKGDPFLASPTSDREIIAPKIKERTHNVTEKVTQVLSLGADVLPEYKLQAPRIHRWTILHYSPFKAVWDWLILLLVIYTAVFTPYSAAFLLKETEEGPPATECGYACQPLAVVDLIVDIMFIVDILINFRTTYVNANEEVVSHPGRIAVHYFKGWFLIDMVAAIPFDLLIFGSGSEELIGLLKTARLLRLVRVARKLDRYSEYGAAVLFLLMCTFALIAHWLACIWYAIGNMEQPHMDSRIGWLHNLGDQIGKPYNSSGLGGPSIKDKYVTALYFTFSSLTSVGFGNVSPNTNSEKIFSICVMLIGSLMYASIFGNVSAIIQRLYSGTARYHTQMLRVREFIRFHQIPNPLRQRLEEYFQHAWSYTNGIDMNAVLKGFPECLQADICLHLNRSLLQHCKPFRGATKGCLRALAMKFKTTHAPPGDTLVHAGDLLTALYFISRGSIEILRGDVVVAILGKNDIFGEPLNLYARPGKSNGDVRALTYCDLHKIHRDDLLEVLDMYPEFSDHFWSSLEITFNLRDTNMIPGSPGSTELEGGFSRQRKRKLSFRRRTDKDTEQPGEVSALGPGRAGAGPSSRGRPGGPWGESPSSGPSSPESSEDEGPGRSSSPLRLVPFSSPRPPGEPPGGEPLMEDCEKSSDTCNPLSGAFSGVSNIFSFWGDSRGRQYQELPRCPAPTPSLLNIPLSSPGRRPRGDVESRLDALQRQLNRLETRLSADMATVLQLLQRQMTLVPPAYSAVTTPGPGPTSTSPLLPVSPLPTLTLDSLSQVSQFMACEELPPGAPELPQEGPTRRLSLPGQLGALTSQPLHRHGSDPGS
T1 sequence (P43220 24-463): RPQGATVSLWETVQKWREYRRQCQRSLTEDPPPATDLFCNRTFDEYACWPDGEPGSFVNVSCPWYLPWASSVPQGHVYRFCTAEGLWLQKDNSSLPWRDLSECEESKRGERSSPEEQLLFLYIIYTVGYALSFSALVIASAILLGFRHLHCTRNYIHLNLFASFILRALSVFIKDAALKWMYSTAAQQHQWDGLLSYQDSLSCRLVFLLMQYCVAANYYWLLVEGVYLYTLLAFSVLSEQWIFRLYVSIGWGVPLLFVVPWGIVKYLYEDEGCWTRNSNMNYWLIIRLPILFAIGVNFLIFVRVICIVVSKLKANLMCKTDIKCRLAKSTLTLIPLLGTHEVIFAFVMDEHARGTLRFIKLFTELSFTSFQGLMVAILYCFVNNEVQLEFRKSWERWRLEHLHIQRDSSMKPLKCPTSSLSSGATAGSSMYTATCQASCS

SMILES	pEC50 [1]	inhibition at 2.5 h, 10 µM [2] [%]
O=C(O)c1ccc2nc(Cc3cc(F)c(-c4cccc(OCc5ccc(Cl)cc5F)n4)cc3F)n(C[C@@H]3CCCO3)c2c1 [Example 116, (S)-2-(4-(6-((4-chloro-2-fluorobenzyl)oxy)pyridin-2-yl)-2,5-difluorobenzyl)-1-((tetrahydrofuran-2-yl)methyl)-1H-benzo[d]imidazole-6-carboxylic acid]	> 8.49	5.86
O=C(O)c1ccc2nc(Cc3ccc(-c4ccc(F)c(OCc5ccc(Cl)cc5F)n4)c(F)c3)n(C[C@@H]3CCO3)c2c1 [Example 117, (S)-2-(4-(6-((4-chloro-2-fluorobenzyl)oxy)-5-fluoropyridin-2-yl)-3-fluorobenzyl)-1-(oxetan-2-ylmethyl)-1H-benzo[d]imidazole-6-carboxylic acid]	> 8.49	12.5
N#Cc1ccc(COc2cccc(-c3ccc(Cc4nc5ccc(C(=O)O)cc5n4C[C@@H]4CCO4)cc3F)n2)cc1 [Example 118, (S)-2-(4-(6-((4-cyanobenzyl)oxy)pyridin-2-yl)-3-fluorobenzyl)-1-(oxetan-2-ylmethyl)-1H-benzo[d]imidazole-6-carboxylic acid]	8.37	20.7
N#Cc1ccc(COc2cccc(-c3cc(F)c(Cc4nc5ccc(C(=O)O)cc5n4C[C@@H]4CCCO4)cc3F)n2)c(F)c1 [Example 120, (S)-2-(4-(6-((4-cyano-2-fluorobenzyl)oxy)pyridin-2-yl)-2,5-difluorobenzyl)-1-((tetrahydrofuran-2-yl)methyl)-1H-benzo[d]imidazole-6-carboxylic acid]	> 8.49	-3.82
O=C(O)c1ccc2nc(Cc3ccc(-c4cccc(OCc5ccc(C(F)(F)F)cc5)n4)c(F)c3)n(C[C@@H]3CCO3)c2c1 [Example 121, (S)-2-(3-fluoro-4-(6-((4-(trifluoromethyl)benzyl)oxy)pyridin-2-yl)benzyl)-1-(oxetan-2-ylmethyl)-1H-benzo[d]imidazole-6-carboxylic acid]	7.82	-10.7
O=C(O)c1ccc2nc(Cc3ccc(-c4cccc(OCc5ccc(Cl)cc5)n4)c(F)c3)n(C[C@@H]3CCO3)c2c1 [Example 123, (S)-2-(4-(6-((4-chlorobenzyl)oxy)pyridin-2-yl)-3-fluorobenzyl)-1-(oxetan-2-ylmethyl)-1H-benzo[d]imidazole-6-carboxylic acid]	7.85	-0.45
O=C(O)c1ccc2nc(Cc3ccc(-c4cccc(OCc5ccc([N+](=O)[O-])cc5)n4)c(F)c3)n(C[C@@H]3CCO3)c2c1 [Example 124, (S)-2-(3-fluoro-4-(6-((4-nitrobenzyl)oxy)pyridin-2-yl)benzyl)-1-(oxetan-2-ylmethyl)-1H-benzo[d]imidazole-6-carboxylic acid]	8.37	7.28
O=C(O)c1ccc2nc(Cn3ccc(-c4cccc(OCc5ccc(Cl)cc5F)n4)cc3=O)n(CC3CCO3)c2c1 (centres unmarked) [Example 127, 2-((6-((4-chloro-2-fluorobenzyl)oxy)-2′-oxo-[2,4′-bipyridin]-1′(2′H)-yl)methyl)-1-(oxetan-2-ylmethyl)-1H-benzo[d]imidazole-6-carboxylic acid]	7.70	2.3
N#Cc1ccc(COc2cccc(-c3ccc(Cc4nc5ccc(C(=O)O)cc5n4CC4CCCO4)cc3F)n2)c(F)c1 (centres unmarked) [Example 130, 2-(4-(6-((4-cyano-2-fluorobenzyl)oxy)pyridin-2-yl)-3-fluorobenzyl)-1-((tetrahydrofuran-2-yl)methyl)-1H-benzo[d]imidazole-6-carboxylic acid]	7.68	-6.76
O=C(O)c1ccc2nc(Cn3cc(-c4cccc(OCc5ccc(Cl)cc5F)n4)cn3)n(C[C@@H]3CCO3)c2c1 [Example 131, (S)-2-((4-(6-((4-chloro-2-fluorobenzyl)oxy)pyridin-2-yl)-1H-pyrazol-1-yl)methyl)-1-(oxetan-2-ylmethyl)-1H-benzo[d]imidazole-6-carboxylic acid]	5.80	-0.97
O=C(O)c1ccc2nc(Cc3ccc(-c4cccc(OCc5nc6ccccc6s5)n4)c(F)c3)n(C[C@@H]3CCO3)c2c1 [Example 132, (S)-2-(4-(6-(benzo[d]thiazol-2-ylmethoxy)pyridin-2-yl)-3-fluorobenzyl)-1-(oxetan-2-ylmethyl)-1H-benzo[d]imidazole-6-carboxylic acid]	6.34	-7.11
Cc1cc(-c2cccc(OCc3ccc(Cl)cc3F)n2)ccc1Cc1nc2ccc(C(=O)O)cc2n1C[C@@H]1CCO1 [Example 134, (S)-2-(4-(6-((4-chloro-2-fluorobenzyl)oxy)pyridin-2-yl)-2-methylbenzyl)-1-(oxetan-2-ylmethyl)-1H-benzo[d]imidazole-6-carboxylic acid]	6.72	28.3

The remaining compounds from weak to strong by pEC50 [1], led by results:

pEC50 [1]	SMILES	inhibition at 2.5 h, 10 µM [2] [%]
6.29	O=C(O)c1ccc2nc(Cc3ccc(-c4cccc(OCc5c(F)cccc5Cl)n4)c(F)c3)n(C[C@@H]3CCO3)c2c1 [Example 126, (S)-2-(4-(6-((2-chloro-6-fluorobenzyl)oxy)pyridin-2-yl)-3-fluorobenzyl)-1-(oxetan-2-ylmethyl)-1H-benzo[d]imidazole-6-carboxylic acid]	-3.99
6.31	O=C(O)c1ccc2nc(Cc3ccc(-c4cccc(OCc5cccnc5)n4)c(F)c3)n(C[C@@H]3CCO3)c2c1 [Example 129, (S)-2-(3-fluoro-4-(6-(pyridin-3-ylmethoxy)pyridin-2-yl)benzyl)-1-(oxetan-2-ylmethyl)-1H-benzo[d]imidazole-6-carboxylic acid]	-6.27
6.59	O=C(O)c1ccc2nc(Cc3ccc(-c4cccc(OCc5ccncc5)n4)c(F)c3)n(C[C@@H]3CCO3)c2c1 [Example 128, (S)-2-(3-fluoro-4-(6-(pyridin-4-ylmethoxy)pyridin-2-yl)benzyl)-1-(oxetan-2-ylmethyl)-1H-benzo[d]imidazole-6-carboxylic acid]	-6.1
7.43	O=C(O)c1ccc2nc(Cc3ccc(-c4cccc(OCc5ccc(F)c(F)c5)n4)c(F)c3)n(C[C@@H]3CCO3)c2c1 [Example 125, (S)-2-(4-(6-((3,4-difluorobenzyl)oxy)pyridin-2-yl)-3-fluorobenzyl)-1-(oxetan-2-ylmethyl)-1H-benzo[d]imidazole-6-carboxylic acid]	-19.5
7.85	Cc1cc(-c2cccc(OCc3ccc(C#N)cc3F)n2)ccc1Cc1nc2ccc(C(=O)O)cc2n1C[C@@H]1CCO1 [Example 133, (S)-2-(4-(6-((4-cyano-2-fluorobenzyl)oxy)pyridin-2-yl)-2-methylbenzyl)-1-(oxetan-2-ylmethyl)-1H-benzo[d]imidazole-6-carboxylic acid]	41
7.92	O=C(O)c1ccc2nc(Cc3ccc(-c4cccc(OCc5ccc(F)cc5F)n4)c(F)c3)n(C[C@@H]3CCO3)c2c1 [Example 119, (S)-2-(4-(6-((2,4-difluorobenzyl)oxy)pyridin-2-yl)-3-fluorobenzyl)-1-(oxetan-2-ylmethyl)-1H-benzo[d]imidazole-6-carboxylic acid]	4.13
8.02	COc1ccc(COc2cccc(-c3ccc(Cc4nc5ccc(C(=O)O)cc5n4C[C@@H]4CCO4)cc3F)n2)cc1 [Example 122, (S)-2-(3-fluoro-4-(6-((4-methoxybenzyl)oxy)pyridin-2-yl)benzyl)-1-(oxetan-2-ylmethyl)-1H-benzo[d]imidazole-6-carboxylic acid]	-5.75
